SMILES strings stand for the structures.

This test has as its target T1, human PF4 (Homo sapiens, UniProt P02776).
T1 construct: PF4 is a 70 amino acid, lysine-rich 7.8 kDa platelet-specific protein; made in house; host or cells: Escherichia coli BL21DE3 pLysS (pT7-7) and/or Drosophila S2 cells
T1 sequence (P02776 32-101): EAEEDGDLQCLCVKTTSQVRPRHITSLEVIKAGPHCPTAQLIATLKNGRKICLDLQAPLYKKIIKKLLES
The test is described as follows: Inhibition of PF4 tetramer formation (BS3 cross-linking, SDS-PAGE). It counts as biochemical. Particulars: for inhibition at 5 µM: 5 μM inhibitor; for inhibition at 10 µM: 10 μM inhibitor (column A); for IC50: read-out: IC50 of PF4 tetramer formation inhibition; for inhibition at 1 µM: 1 μM inhibitor; for inhibition at 3 µM: 3 μM inhibitor (column A). An outline of the steps:
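Monomer, dimer, trimer and tetramer fractions were quantified by densitometry after reducing 12% SDS-PAGE of BS3-cross-linked (0.2 mM, 30 min, room temperature) PF4. Before cross-linking, 10 μg/ml E. coli-expressed human WT PF4 in PBS was exposed to compound for 15 min at 37° C or 60 min at room temperature; controls lacked compound.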

The mark [1] stands for this setting: read-out: % inhibition of PF4 tetramer formation at single concentration of inhibitor.

As for `CC(C)(C)OC(=O)N[C@@H](C(=O)C1C(=O)c2ccc(C(=O)c3ccc4c(c3)C(=O)C(C(=O)[C@H](NC(=O)OC(C)(C)C)c3ccccc3)C4=O)cc2C1=O)c1ccccc1` (stereo partly drawn) [Example 170, tert-butyl N-[(1R)-2-(5-{2-[(2R)-2-{[(tert-butoxy)carbonyl]amino}-2-phenylacetyl]-1,3-dioxo-2,3-dihydro-1H-indene-5-carbonyl}-1,3-dioxo-2,3-dihydro-1H-inden-2-yl)-2-oxo-1-phenylethyl]carbamate], the IC50 is 3.4 µM. Besides, under setting [1], the inhibition at 5 µM was 76% and the inhibition at 10 µM stood at 85%.

`CCOC(=O)NC(=O)C1C(=O)c2ccc(C(=O)c3ccc4c(c3)C(=O)C(C(=O)NC(=O)OCC)C4=O)cc2C1=O` (stereo not shown) [Example 16, 5,5′-carbonylbis((1,3-dioxo-indane-2-carbonyl)-carbamic acid ethyl ester)]: the IC50 was determined as 20 µM. The inhibition at 30 µM (30 μM inhibitor, read-out: % inhibition of PF4 tetramer formation at single concentration of inhibitor) is 78%.

On to `CSCCCC(=O)C1C(=O)c2ccc(Oc3ccc4c(c3)C(=O)C(C(=O)CCCSC)C4=O)cc2C1=O` (stereo not shown) [Example 283, 2-[4-(methylsulfanyl)butanoyl]-5-({2-[4-(methylsulfanyl)butanoyl]-1,3-dioxo-2,3-dihydro-1H-inden-5-yl}oxy)-2,3-dihydro-1H-indene-1,3-dione], for which the IC50 turned out to be 10 µM. Moreover, the inhibition at 10 µM under setting [1] amounted to 86%.

As to `O=C(c1ccc2c(c1)C(=O)C(Br)C2=O)c1ccc2c(c1)C(=O)C(Br)C2=O` (stereo not shown) [Example 244, 2-bromo-5-(2-bromo-1,3-dioxo-2,3-dihydro-1H-indene-5-carbonyl)-2,3-dihydro-1H-indene-1,3-dione], under setting [1], the inhibition at 1 µM was 21% and the inhibition at 3 µM amounted to 43%.

In the case of `O=C(c1ccc2c(c1)C(=O)C(C(=O)CN1CCCC1=O)C2=O)c1ccc2c(c1)C(=O)C(C(=O)CN1CCCC1=O)C2=O` (stereo not shown) [Example 183, 5-{1,3-dioxo-2-[2-(2-oxopyrrolidin-1-yl)acetyl]-2,3-dihydro-1H-indene-5-carbonyl}-2-[2-(2-oxopyrrolidin-1-yl)acetyl]-2,3-dihydro-1H-indene-1,3-dione], the IC50 is 4.3 µM. Further, under setting [1], the inhibition at 5 µM amounted to 87% and the inhibition at 10 µM was found to be 100%.

For the molecule `CSCCC(=O)C1C(=O)c2ccc(C(=O)c3ccc4c(c3)C(=O)C(C(=O)CCSC)C4=O)cc2C1=O` (stereo not shown) [Example 277, 2-[3-(methylsulfanyl)propanoyl]-5-{2-[3-(methylsulfanyl)propanoyl]-1,3-dioxo-2,3-dihydro-1H-indene-5-carbonyl}-2,3-dihydro-1H-indene-1,3-dione], the IC50 stood at 3 µM. Under setting [1], the inhibition at 1 µM turned out to be 38% and the inhibition at 3 µM amounted to 41%.

Consider `COCC(=O)C1C(=O)c2ccc(Oc3ccc4c(c3)C(=O)C(C(=O)COC)C4=O)cc2C1=O` (stereo not shown) [Example 249, 2-(2-methoxyacetyl)-5-{[2-(2-methoxyacetyl)-1,3-dioxo-2,3-dihydro-1H-inden-5-yl]oxy}-2,3-dihydro-1H-indene-1,3-dione], for which the IC50 was 3 µM. In addition, under setting [1], the inhibition at 1 µM came to 19% and the inhibition at 3 µM was 36%.

With `CC(C)(C)OC(=O)N1CCSC1C(=O)C1C(=O)c2ccc(C(=O)c3ccc4c(c3)C(=O)C(C(=O)C3SCCN3C(=O)OC(C)(C)C)C4=O)cc2C1=O` (stereo not shown) [Example 124, tert-butyl 2-[5-(2-{3-[(tert-butoxy)carbonyl]-1,3-thiazolidine-2-carbonyl}-1,3-dioxo-2,3-dihydro-1H-indene-5-carbonyl)-1,3-dioxo-2,3-dihydro-1H-indene-2-carbonyl]-1,3-thiazolidine-3-carboxylate], the IC50 is 6.3 µM.

As for `O=C(c1ccc2c(c1)C(=O)C(C(=O)Nc1ccc(Cl)cc1)C2=O)c1ccc2c(c1)C(=O)C(C(=O)Nc1ccc(Cl)cc1)C2=O` (stereo not shown) [Example 78, N-(4-chlorophenyl)-5-{2-[(4-chlorophenyl)carbamoyl]-1,3-dioxo-2,3-dihydro-1H-indene-5-carbonyl}-1,3-dioxo-2,3-dihydro-1H-indene-2-carboxamide], the IC50 came to 1.4 µM.

Take `COCCOCCNC(=O)C1C(=O)c2ccc(C(=O)c3ccc4c(c3)C(=O)C(C(=O)NCCOCCOC)C4=O)cc2C1=O` (stereo not shown) [Example 66, 5,5′-carbonylbis(n-(2-(2-methoxyethoxy)ethyl)-1,3-dioxo-2,3-dihydro-1h-indene-2-carboxamide)]: under setting [1], the inhibition at 5 µM turned out to be 48% and the inhibition at 10 µM was determined as 86%.

Regarding `COCCOCCNCC(=O)C1C(=O)c2ccc(C(=O)c3ccc4c(c3)C(=O)C(C(=O)CNCCOCCOC)C4=O)cc2C1=O` (stereo not shown) [Example 393, 2-(2-{[2-(2-methoxyethoxy)ethyl]amino}acetyl)-5-[2-(2-{[2-(2-methoxyethoxy)ethyl]amino}acetyl)-1,3-dioxo-2,3-dihydro-1H-indene-5-carbonyl]-2,3-dihydro-1H-indene-1,3-dione], under setting [1], the inhibition at 1 µM is 1% and the inhibition at 3 µM was found to be 4%.

With `O=C(c1ccnc(-c2ccccc2)c1)C1C(=O)c2ccc(S(=O)(=O)c3ccc4c(c3)C(=O)C(C(=O)c3ccnc(-c5ccccc5)c3)C4=O)cc2C1=O` (stereo not shown) [Example 241, 5-{[1,3-dioxo-2-(2-phenylpyridine-4-carbonyl)-2,3-dihydro-1H-inden-5-yl]sulfonyl}-2-(2-phenylpyridine-4-carbonyl)-2,3-dihydro-1H-indene-1,3-dione], under setting [1], the inhibition at 1 µM came out at 14% and the inhibition at 3 µM was 29%.

For `O=C(O)CCCC(=O)C1C(=O)c2ccc(-c3ccc4c(c3)C(=O)C(C(=O)CCCC(=O)O)C4=O)cc2C1=O` (stereo not shown) [Example 227, 5-[2′-(4-carboxybutanoyl)-1,1′,3,3′-tetraoxo-1H,1′H,2H, 2′H,3H,3′H-[5,5′-biinden]-2-yi]-5-oxopentanoic acid], the IC50 was determined as 1.8 µM.

`O=C(c1ccc2c(c1)C(=O)C(C(=O)[C@@H]1CCN1)C2=O)c1ccc2c(c1)C(=O)C(C(=O)[C@@H]1CCN1)C2=O` (stereo partly drawn) [Example 116, 2-[(2S)-azetidine-2-carbonyl]-5-{2-[(2S)-azetidine-2-carbonyl]-1,3-dioxo-2,3-dihydro-1H-indene-5-carbonyl}-2,3-dihydro-1H-indene-1,3-dione]: under setting [1], the inhibition at 5 µM was found to be 13% and the inhibition at 10 µM worked out at 21%.

Take `O=C(c1ccc2c(c1)C(=O)C(C(=O)Nc1cccc(Cl)c1)C2=O)c1ccc2c(c1)C(=O)C(C(=O)Nc1cccc(Cl)c1)C2=O` (stereo not shown) [Example 79, N-(3-chlorophenyl)-5-{2-[(3-chlorophenyl)carbamoyl]-1,3-dioxo-2,3-dihydro-1H-indene-5-carbonyl}-1,3-dioxo-2,3-dihydro-1H-indene-2-carboxamide]: the IC50 turned out to be 1 µM.

Take `Cc1ccccc1C(=O)CCC(=O)C1C(=O)c2ccc(Oc3ccc4c(c3)C(=O)C(C(=O)CCC(=O)c3ccccc3C)C4=O)cc2C1=O` (stereo not shown) [Example 259, 2-[4-(2-methylphenyl)-4-oxobutanoyl]-5-({2-[4-(2-methylphenyl)-4-oxobutanoyl]-1,3-dioxo-2,3-dihydro-1H-inden-5-yl}oxy)-2,3-dihydro-1H-indene-1,3-dione]: under setting [1], the inhibition at 1 µM was 18% and the inhibition at 3 µM was found to be 55%.

On to `CC(C)(C)OC(=O)N1CCOC(C(=O)C2C(=O)c3ccc(S(=O)(=O)c4ccc5c(c4)C(=O)C(C(=O)C4CN(C(=O)OC(C)(C)C)CCO4)C5=O)cc3C2=O)C1` (stereo not shown) [Example 233], for which, under setting [1], the inhibition at 1 µM was determined as 1% and the inhibition at 3 µM amounted to 3%.

Broadly, the IC50 is the midpoint of a concentration-inhibition curve.

(Values after patent US20250281424A1 (New York Blood Center, Inc, priority 2020, published 2025).)
